Data from US3949075A, “Anti-microbial compounds of 2', 4' substituted anilides of substituted nitrosalicylic acid for quadruped animals” (Ferro Corporation, priority 1974, dated 1976).
Read-outs that look alike come from different tables or passages of the source.

Columns and labels:
Haemonchus contortus = experiment: Percent of Haemonchus destroyed or expelled in infected sheep (egg count after treatment); type: in vivo, Haemonchus contortus (in sheep); settings: for inhibition in vivo at 15 mg/kg / inhibition in vivo at 5 mg/kg / inhibition in vivo at 2 mg/kg: Haemonchus contortus; for Effectiveness at 15 mg/kg against Haemonchus: Table VI
Protocol: Two groups of sheep were used in the tests. One group was used as a non-medicated control, while the other group was treated with the compound under investigation. Helminth-free young lambs were infected with about 10,000 filariform larvae of Haemonchus contortus. In three weeks when the infection became apparent, egg counts were made to determine the density of the worm burden.
The egg count was carried out using the following modified Stoll method. Three grams of sheep feces were taken rectally from each animal and placed in a Stoll flask. To each flask, tap water was added to the top line. The fecal pellets were too hard to break down, the flasks were closed with rubber stoppers and kept in the refrigerator for several hours. The flasks were thoroughly shaken and a 1 ml. sample was drawn from the middle using a wide mouth pipette. This 1 ml. sample was transferred to an 8 ml. plastic tube, to which enough saturated sodium chloride solution was added to reach the rim. The tubes were then centrifuged for 10 minutes at 1500 r.p.m. Then sodium chloride solution was added with a medicine dropper forming a concave miniscus. A cover glass was carefully added and the tubes were kept in a refrigerator for ten to twenty minutes. During that period, the nematode ova flowed upward and adhered to the bottom of the cover glass slip. At the end of the 20-minute period, the cover slip was carefully detached from the miniscus and transferred to a microscopic slide. The ova were then counted under a microscope equipped with 10X ocular and 10X objective lens. Each ovum under the microscope represented 20 ova in the sample.
Animals with sufficiently high egg counts were taken out of the pool and housed in experimental pens. Since the salicylanilides of the present invention are water insoluble, the compounds were first ground using a mortar and pestle and then were placed in a carboxymethyl cellulose solution. The particles were further micronized ultrasonically. The compound was then administered to two or three animals by Oesophageal gavage. Control, untreated animals, received only the carboxymethyl cellulose solution in a similar manner. On the sixth and seventh day after treatment, fecal pellets were taken from the rectum of the control as well as the treated animals and egg counts were made.
(§1) The results of tests on sheep in a manner described, supra, using compounds of the present invention are given in Table 1, Examples 5 through 13. The numbers in the column headed "Haemonchus (15 mg/kg)" refer to the percent of parasites destroyed or expelled when the indicated compound was introduced into the rumen of sheep at a dosage of 15 milligrams per kilogram of body weight. The values under "Tolerance (mg/kg)" refer to the highest test dosage in the milligrams of anthelmintic per kilogram of body weight at which the sheep developed no toxic symptoms. "Tol." is an abbreviation for "tolerated". The symbols R1 and R2 refer to those of Formula I in these and other following examples.
(§2) The data of the tables were generated using procedures previously described. The compounds tested are disubstituted and, except for Example 50 which is dibromo, are dichloro. Where the position for the substituents is other than 2' and 4', it is indicated. Under the indicated microorganisms, the values given in this and the following tables, should be read as: percentage of microorganism killed/dose in milligrams per kilogram of body weight. Under "Tolerance", the term "Tol." means "tolerated", "Tox." means "toxic", and "Sym." means "symptoms of toxic reaction", all at the dosage value which follows. It will be appreciated that there is no sharp toxicity end point in determining toxicity to living sheep.

sheep = experiment: Tolerance / toxicity in sheep; type: in vivo; parameters: key to Tolerance at 100 mg/kg / Tolerance at 50 mg/kg: "toxic" refers to death of sheep resulting from the use of the indicated compound at the indicated dosage; key to Tolerance: Tol.: tolerated; Tox.: toxic; Sym.: symptoms of toxic reaction
Protocol: as §1
The importance of the 2',4' substitution on the anilide moiety of Formula I is illustrated by the case of the dichloro substitution as summarized in Table III. […] This has been mentioned briefly hereinabove. As used herein, "toxic" refers to death of sheep resulting from the use of the indicated compound at the indicated dosage.
as §2

Fasciola hepatica = experiment: Test for activity against liver flukes, Fasciola hepatica, in infected sheep; type: in vivo; settings: Fasciola hepatica, read-out: Fasciola hepatica, percentage of microorganism killed
Protocol: Test for activity against liver flukes were conducted as follows:
Eggs of Fasciola hepatica were collected from the bile of donor sheep. The eggs were embryonated and snails were infected (the genus Lymnaea serves as intermediate host) to produce Metacercariae which are the infective forms for sheep. Each sheep was infected with 250 metacercariae intraruminally. When the infection became patent in ca. 80 days, egg counts were carried out to determine the degree of worm burden. The liver was processed to recover F. hepatica in the untreated and treated sheep.
as §2

[1] = sheep, intrarumenal, 15 mg/kg, Table II, read-out: Effectiveness in removal of Haemonchus
[2] = sheep, 15 mg/kg, Table V, read-out: Effectiveness at 15 mg/kg against Haemonchus
[3] = sheep, 15 mg/kg, Tables VIII-XI, read-out: Haemonchus, percentage of microorganism killed
[4] = iv, sheep, 15 mg/kg, Tables III and IV, read-out: Effectiveness (%) at 15 mg/kg
[5] = sheep, 5 mg/kg, Tables VIII-XI, read-out: Haemonchus, percentage of microorganism killed
[6] = sheep, 15 mg/kg, Tables VIII-XI
[7] = read-out: Effectiveness at 15 mg/kg against Haemonchus, sheep, 15 mg/kg, Table V

## Cc1ccc(NC(=O)c2c(C)c([N+](=O)[O-])cc(C(C)(C)C)c2O)c(C)c1 [Example 21]
Haemonchus contortus; [1]
  inhibition in vivo at 15 mg/kg: 13%

## Cc1c([N+](=O)[O-])cc(C(C)(C)C)c(O)c1C(=O)Nc1ccccc1Cl [Example 16]
Haemonchus contortus; [2]
  inhibition in vivo at 15 mg/kg: 33%
Haemonchus contortus; [3]
  inhibition in vivo at 15 mg/kg: 33%
Haemonchus contortus; [1]
  inhibition in vivo at 15 mg/kg: 33%

## Cc1c([N+](=O)[O-])cc(C(C)(C)C)c(O)c1C(=O)Nc1cccc(Cl)c1 [31 Cl 3'-substitution]
Haemonchus contortus; [2]
  inhibition in vivo at 15 mg/kg: 0%
Haemonchus contortus; [3]
  inhibition in vivo at 15 mg/kg: 0%

## Cc1cccc(Cl)c1NC(=O)c1c(C)c([N+](=O)[O-])cc(C(C)(C)C)c1O [Example 30]
Haemonchus contortus; [4]
  inhibition in vivo at 15 mg/kg: 0%
Haemonchus contortus; [3]
  inhibition in vivo at 15 mg/kg: 0%
Haemonchus contortus; sheep
  effectiveness against the parasites, in words: ineffective

## Cc1c([N+](=O)[O-])cc(C(C)(C)C)c(O)c1C(=O)Nc1cccc(Cl)c1Cl [Example 60]
Haemonchus contortus; [3]
  inhibition in vivo at 15 mg/kg: 14%

## Cc1ccc(NC(=O)c2c(C)c([N+](=O)[O-])cc(C(C)(C)C)c2O)cc1Cl [Example 72]
Haemonchus contortus; [5]
  inhibition in vivo at 5 mg/kg: 0%
Haemonchus contortus; [3]
  inhibition in vivo at 15 mg/kg: 80%

## Cc1c([N+](=O)[O-])cc(C(C)(C)C)c(O)c1C(=O)Nc1ccc(Cl)c(Cl)c1 [Example 25]
Haemonchus contortus; [4]
  inhibition in vivo at 15 mg/kg: 100%
Haemonchus contortus; [5]
  inhibition in vivo at 5 mg/kg: 20%
Haemonchus contortus; [3]
  inhibition in vivo at 15 mg/kg: 100%
Haemonchus contortus; sheep, 5 mg/kg, Tables III and IV
  Effectiveness (%) at 5 mg/kg: 20%
sheep; 15 mg./kg., Tables VIII, X
  Tolerance: Tox.
sheep; 50 mg./kg., Tables VIII-X
  Tolerance: Tox.
sheep; 50 mg/kg, Tables III and IV
  Tolerance at 50 mg/kg: toxic
Fasciola hepatica; sheep, 2 mg/kg, Tables VIII-XI
  inhibition in vivo at 2 mg/kg: 0%
Fasciola hepatica; sheep, Tables VIII-XI
  inhibition in vivo at 5 mg/kg: 95%
Fasciola hepatica; [6]
  inhibition in vivo at 15 mg/kg: 100%

## Cc1c([N+](=O)[O-])cc(C(C)(C)C)c(O)c1C(=O)Nc1cc(Cl)c(Cl)cc1Cl [Example 36]
sheep; 15 mg/kg, Table VI
  Toxicity (printed in the column Effectiveness at 15 mg/kg against Haemonchus): Toxic

## Cc1ccc(Cl)cc1NC(=O)c1c(C)c([N+](=O)[O-])cc(C(C)(C)C)c1O [Example 29]
Haemonchus contortus; [4]
  inhibition in vivo at 15 mg/kg: 0%
Haemonchus contortus; [3]
  inhibition in vivo at 15 mg/kg: 0%
Haemonchus contortus; sheep
  effectiveness against the parasites, in words: ineffective

## Cc1c([N+](=O)[O-])cc(C(C)(C)C)c(O)c1C(=O)Nc1ccccc1F [Example 15]
Haemonchus contortus; [1]
  inhibition in vivo at 15 mg/kg: 0%

## Cc1c([N+](=O)[O-])cc(C(C)(C)C)c(O)c1C(=O)Nc1ccc(I)cc1 [Example 9]
Haemonchus contortus; [7]
  inhibition in vivo at 15 mg/kg: 93%
Haemonchus contortus; [5]
  inhibition in vivo at 5 mg/kg: 22%
Haemonchus contortus; [3]
  inhibition in vivo at 15 mg/kg: 93%
Haemonchus contortus; sheep, into rumen, 2 mg/kg, Table 1
  Haemonchus (2 mg/kg), percent of parasites destroyed or expelled: 14%
Haemonchus contortus; sheep, into rumen, 5 mg/kg, Table 1
  Haemonchus (5 mg/kg), percent of parasites destroyed or expelled: 22%
Haemonchus contortus; sheep, into rumen, 15 mg/kg, Table 1
  Haemonchus (15 mg/kg), percent of parasites destroyed or expelled: 93%
Fasciola hepatica; [6]
  inhibition in vivo at 15 mg/kg: 0%

## Cc1c([N+](=O)[O-])cc(C(C)(C)C)c(O)c1C(=O)Nc1ccccc1Br [Example 17]
Haemonchus contortus; [2]
  inhibition in vivo at 15 mg/kg: 0%
Haemonchus contortus; [3]
  inhibition in vivo at 15 mg/kg: 0%
Haemonchus contortus; [1]
  inhibition in vivo at 15 mg/kg: 0%

## CCOC(=O)c1ccc(NC(=O)c2c(C)c([N+](=O)[O-])cc(C(C)(C)C)c2O)cc1 [Example 20]
Haemonchus contortus; [1]
  inhibition in vivo at 15 mg/kg: 18%

## Cc1cc(I)ccc1NC(=O)c1c(C)c([N+](=O)[O-])cc(C(C)(C)C)c1O [Example 66]
Haemonchus contortus; sheep, 2 mg/kg, Tables VIII-XI, read-out: Haemonchus, percentage of microorganism killed
  inhibition in vivo at 2 mg/kg: 13%
Haemonchus contortus; [5]
  inhibition in vivo at 5 mg/kg: 88%
sheep; 50 mg./kg., Tables VIII-X
  Tolerance: Sym.
Fasciola hepatica; sheep, Tables VIII-XI
  inhibition in vivo at 5 mg/kg: 100%
Fasciola hepatica; [6]
  inhibition in vivo at 15 mg/kg: 100%

## Cc1ccc(NC(=O)c2c(C)c([N+](=O)[O-])cc(C(C)(C)C)c2O)c(Cl)c1 [Example 71]
Haemonchus contortus; [3]
  inhibition in vivo at 15 mg/kg: 62%

## Cc1c([N+](=O)[O-])cc(C(C)(C)C)c(O)c1C(=O)Nc1ccccc1I [Example 18]
Haemonchus contortus; [7]
  inhibition in vivo at 15 mg/kg: 0%
Haemonchus contortus; [3]
  inhibition in vivo at 15 mg/kg: 0%
Haemonchus contortus; [1]
  inhibition in vivo at 15 mg/kg: 0%

## Cc1c([N+](=O)[O-])cc(C(C)(C)C)c(O)c1C(=O)Nc1cccc(I)c1 [33 I 3'-substitution]
Haemonchus contortus; [7]
  inhibition in vivo at 15 mg/kg: 0%
Haemonchus contortus; [3]
  inhibition in vivo at 15 mg/kg: 14%

## Cc1cc(Br)ccc1NC(=O)c1c(C)c([N+](=O)[O-])cc(C(C)(C)C)c1O [Example 64]
Haemonchus contortus; read-out: Haemonchus, percentage of microorganism killed, sheep, 2 mg/kg, Tables VIII-XI
  inhibition in vivo at 2 mg/kg: 38%
Haemonchus contortus; [5]
  inhibition in vivo at 5 mg/kg: 100%
sheep; 50 mg./kg., Tables VIII-X
  Tolerance: Tox.
sheep; 50 mg./kg., Tables VIII-X, listed as 65
  Tolerance: Sym.
Fasciola hepatica; sheep, Tables VIII-XI
  inhibition in vivo at 5 mg/kg: 100%

## Cc1c([N+](=O)[O-])cc(C(C)(C)C)c(O)c1C(=O)Nc1cccc(C(F)(F)F)c1 [34 CF3 3'-substitution]
Haemonchus contortus; [2]
  inhibition in vivo at 15 mg/kg: 2%
Haemonchus contortus; [3]
  inhibition in vivo at 15 mg/kg: 2%

## Cc1c([N+](=O)[O-])cc(C(C)(C)C)c(O)c1C(=O)Nc1ccc(Br)cc1Br [Example 50]
Haemonchus contortus; [5]
  inhibition in vivo at 5 mg/kg: 99.8%
Fasciola hepatica; sheep, Tables VIII-XI
  inhibition in vivo at 5 mg/kg: 100%

## Cc1c([N+](=O)[O-])cc(C(C)(C)C)c(O)c1C(=O)Nc1cc(Cl)cc(Cl)c1 [Example 26]
Haemonchus contortus; [4]
  inhibition in vivo at 15 mg/kg: 67%
Haemonchus contortus; [3]
  inhibition in vivo at 15 mg/kg: 67%
Haemonchus contortus; sheep
  effectiveness against the parasites, in words: too low to be useful
sheep; 40 mg./kg., Table VIII
  Tolerance: Tol.
Fasciola hepatica
  inhibition in vivo at 15 mg/kg: 100%

## COc1cc(Cl)ccc1NC(=O)c1c(C)c([N+](=O)[O-])cc(C(C)(C)C)c1O [Example 22]
Haemonchus contortus; [1]
  inhibition in vivo at 15 mg/kg: 10%

## Cc1c([N+](=O)[O-])cc(C(C)(C)C)c(O)c1C(=O)Nc1c(Cl)cc(Cl)cc1Cl [Example 37]
Haemonchus contortus; sheep, 15 mg/kg
  Effectiveness at 15 mg/kg against Haemonchus: 73%

## Cc1c([N+](=O)[O-])cc(C(C)(C)C)c(O)c1C(=O)Nc1ccc(S(N)(=O)=O)cc1 [Example 19]
Haemonchus contortus; [1]
  inhibition in vivo at 15 mg/kg: 0%

## Cc1c([N+](=O)[O-])cc(C(C)(C)C)c(O)c1C(=O)Nc1ccccc1C(F)(F)F [Example 14]
Haemonchus contortus; [2]
  inhibition in vivo at 15 mg/kg: 0%
Haemonchus contortus; [3]
  inhibition in vivo at 15 mg/kg: 0%
Haemonchus contortus; [1]
  inhibition in vivo at 15 mg/kg: 0%

## Cc1cc(NC(=O)c2c(C)c([N+](=O)[O-])cc(C(C)(C)C)c2O)c(C)cc1Cl [Example 39]
Haemonchus contortus; sheep, 15 mg/kg
  Effectiveness at 15 mg/kg against Haemonchus: 0%
